In paper PMC3152585 (Dental materials : official publication of the Academy of …, 2011):
In brackets after ≈: the same amount, converted by molar mass. Several values for one entry are separate records, joined by “and”; a condition that tells them apart may be missing. Equal entries are not always repeated. Marks after values point to notes of the source that are not given here.

Key:
[1] = system: matrix-bound endogenous MMPs of dentin; experiment: Loss of dry mass of demineralized dentin beams over 30 days; assay type: biochemical, human; settings: for Loss of dry mass (%): mean ± SEM, n=10, buffer control -21.02; for % Inhibition (loss of dry mass): vs buffer control
[2] = biological target: recombinant human MMP-9 (rhMMP-9) (Homo sapiens, UniProt P14780); experiment: Sensolyte Generic MMP colorimetric assay with soluble rhMMP-9; settings: for IC50 (moles/L) for rhMMP-9: from regression of percent inhibition vs alcohol concentration; for IC50 (moles/L) for rhMMP-9 / % Inhibition of soluble rhMMP-9: mean ± SEM, n=5; for % Inhibition of soluble rhMMP-9: alcohol 4.28 M
[3] = system: matrix-bound endogenous MMPs of dentin; experiment: Solubilization of collagen peptides; assay type: biochemical, human; settings: 30 days, vs buffer control
physchem = settings: aqueous buffer
MMP-2 = settings: 5 wt% monomeric HEMA, PAGE gels; cited from earlier work
[4] = read-out: % Inhibition of soluble rhMMP-9

Sequence of recombinant human MMP-9 (rhMMP-9) (P14780 107-707 limits assumed): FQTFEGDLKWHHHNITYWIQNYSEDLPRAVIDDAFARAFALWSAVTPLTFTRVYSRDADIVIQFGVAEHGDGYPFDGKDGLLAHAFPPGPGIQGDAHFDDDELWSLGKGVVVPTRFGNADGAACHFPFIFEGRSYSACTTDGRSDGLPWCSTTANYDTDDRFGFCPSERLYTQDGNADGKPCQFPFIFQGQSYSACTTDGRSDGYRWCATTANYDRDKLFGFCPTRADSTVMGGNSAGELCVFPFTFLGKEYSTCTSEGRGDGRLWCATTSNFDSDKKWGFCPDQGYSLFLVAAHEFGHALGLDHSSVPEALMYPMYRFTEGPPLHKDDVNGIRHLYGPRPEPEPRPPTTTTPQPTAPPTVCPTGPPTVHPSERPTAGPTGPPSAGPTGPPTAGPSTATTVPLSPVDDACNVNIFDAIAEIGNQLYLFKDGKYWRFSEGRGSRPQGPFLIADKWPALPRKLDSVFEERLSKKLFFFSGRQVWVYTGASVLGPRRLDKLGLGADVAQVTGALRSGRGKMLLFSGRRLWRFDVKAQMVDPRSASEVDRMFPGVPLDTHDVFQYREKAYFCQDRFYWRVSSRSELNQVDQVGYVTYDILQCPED

OCCCO [1,3-propanediol]
Loss of dry mass (%) ([1]; alcohol 4.28 M): -3.22 ± 0.31% (10)^A

CCCCCCO [1-hexanol]
inhibition at 170000 µM [2, 4]: 28.3 ± 0.4%

CCCCCCCCO [1-octanol]
IC50 (moles/L) for rhMMP-9 [2]: 0.3 ± 0.22%^b moles/L
inhibition at 170000 µM [2, 4]: 25.4 ± 1.21%

CCCCCO [1-pentanol]
inhibition at 860000 µM [2, 4]: 28.5 ± 0.54%

CCCO [1-propanol]
% Inhibition (loss of dry mass) ([1]; alcohol 4.28 M): 80.2%
% Inhibition of soluble rhMMP-9 [2]: 79.7 ± 0.18%^F
IC50 (moles/L) for rhMMP-9 [2]: 2.7 moles/L and 2.7 ± 0.13%^d moles/L
% Inhibition (solubilization of HYP) ([3]; alcohol 4.28 M): 78.2%

CCC(C)O (stereo not drawn) [2-butanol]
% Inhibition (loss of dry mass) ([1]; alcohol […]): 80.2%
% Inhibition of soluble rhMMP-9 [2]: 78.7 ± 0.94%^F
IC50 (moles/L) for rhMMP-9 [2]: 0.5 ± 0.04%^b moles/L
% Inhibition (solubilization of HYP) ([3]; alcohol […]): 82.9%

CCCCCC(C)O (stereo not drawn) [2-heptanol]
IC50 (moles/L) for rhMMP-9 [2]: 3.0 ± 0.18%^d moles/L
inhibition at 170000 µM [2, 4]: 13.7 ± 2.33%

CCCCC(C)O (stereo not drawn) [2-hexanol]
IC50 (moles/L) for rhMMP-9 [2]: 1.6 ± 0.09%^c moles/L
inhibition at 170000 µM [2, 4]: 13.2 ± 0.67%

CCCCCCC(C)O (stereo not drawn) [2-octanol]
IC50 (moles/L) for rhMMP-9 [2]: 2.7 ± 0.18%^d moles/L
inhibition at 170000 µM [2, 4]: 21.5 ± 0.63%

CC(C)O [2-propanol]
% Inhibition of soluble rhMMP-9 [2]: 52.7 ± 0.18%^D
IC50 (moles/L) for rhMMP-9 [2]: 4.4 ± 0.13%^e moles/L

CCCCC(O)CC (stereo not drawn) [3-heptanol]
IC50 (moles/L) for rhMMP-9 [2]: 0.5 ± 0.04%^b moles/L
inhibition at 170000 µM [2, 4]: 17.1 ± 0.54%

CCCC(O)CC (stereo not drawn) [3-hexanol]
IC50 (moles/L) for rhMMP-9 [2]: 0.4 ± 0.04%^b moles/L
inhibition at 170000 µM [2, 4]: 35.1 ± 1.16%

CCCCC(O)CCC (stereo not drawn) [4-octanol]
IC50 (moles/L) for rhMMP-9 [2]: 1.1 ± 0.04%^c moles/L
inhibition at 170000 µM [2, 4]: 17.7 ± 0.27%

C=C(C)C(=O)OCCO [HEMA, 2-hydroxyethylmethacrylate]
solubility (physchem): 4280 mM (≈ 557 mg/mL)
% Inhibition (loss of dry mass) ([1]; 0.86 M): 80.7%
% Inhibition (loss of dry mass) ([1]; […]): 79.1%
% Inhibition (loss of dry mass) ([1]; alcohol 4.28 M): 80.8%
IC50 [2]: 100 ± 90 mM
Inhibition of rhMMP-9 ([2]; 2.2 vol% HEMA, data not shown): 98%
Inhibition of MMP-9 relative to the same concentration of ethanol ([2]; compared to ethanol): nineteen times more
Inhibition of MMP-2 (MMP-2): about 80%
% Inhibition (solubilization of HYP) ([3]; 0.86 M): 88.1%
% Inhibition (solubilization of HYP) ([3]; […]): 83.6%
% Inhibition (solubilization of HYP) ([3]; alcohol 4.28 M): 85.6%

CCO [ethanol]
% Inhibition of soluble rhMMP-9 [2]: 14.3 ± 2.06%^A
IC50 (moles/L) for rhMMP-9 [2]: 19.6 ± 0.36%^a moles/L

CC(C)(C)O [tert-butanol]
Loss of dry mass (%) ([1]; alcohol 4.28 M): -3.52 ± 0.28% (10)^A
% Inhibition (loss of dry mass) ([1]; alcohol 4.28 M): 83.3%
